Measured values from patent US11950596B2, “Methods of protecting seeds from oxidants and microorganisms” (The United States of America, as represented by the …, priority 2020, dated 2024).
Like-named read-outs stand apart in the source and are kept apart here. Marks after values point to notes of the source that are not given here.

Test system: A. flavus 3357
Test: Heat-sensitizing antimicrobial bioassay (MFC) in A. flavus 3357
Type: cell-based, Aspergillus flavus
Conditions: for MFC: read-out: minimum fungicidal concentration (MFC; >99.999% fungal death)
Procedure: Antimicrobial bioassay: The heat-sensitizing effect of twenty-eight compounds (phenolic derivatives, alkyl gallates, other food additives) (0.025, 0.050, 0.075, 0.100, 0.200, 0.300, 0.400, 0.500, 0.600 or 0.700 mM) and six drugs/fungicides (1, 2, 4, 8, 16, 32, 64 ppm) (Table 2) were examined using A. flavus 3357. Two hundred μL of fungal spores (1.5×10^5 to 2.1×10^5 CFU) dispersed in PBS was transferred into individual microfuge tube (1.5 mL vol.), where (1) “control” tube contained DMSO only, while (2) “treatment” tube contained test chemical/drug at respective concentration. The tubes were then treated with mild heat (57.5° C.) or maintained at room temperature (RT; 22.0° C.) for 90 seconds. After treatments, entire volume (200 μL) from each microfuge tube was spread onto fresh recovery PDA, and plates were incubated at respective temperatures. Fungal growth/survival was monitored after 48 hrs of incubation.
As described in A. flavus 3357 test (see above), microfuge tubes were treated with mild heat (57.5° C.) or maintained at RT (22.0° C.) (90 seconds). After heat treatments, entire volume (200 μL) from each microfuge tube was spread onto fresh recovery LB agar (for bacteria) or PDA (for fungi), and plates were incubated at the optimum temperature for respective microorganisms (i.e., 35° C. for Aspergillus, 37° C. for E. coli, 28° C. for Penicillium/A. tumefaciens, respectively). The growth/survival of test microorganisms were monitored after 48 to 72 hrs of incubation.
Determination of optimum temperature and time duration for screening heat sensitizers in A. flavus 3357: For the determination of the optimum temperature and time points for screening heat sensitizers, fungal (A. flavus 3357) survivability was tested by exposing fungal spores (1.5×10^5 to 2.1×10^5 CFU) to different temperatures (50, 55, 57.5, 60, 65° C.) and time points (0.5, 1.0, 1.5, 2.0, 2.5, 3.0, 3.5, 4.0, 4.5, 5.0 min).

[1] = Aspergillus flavus, 3357, 0.025 h, 22.0° C. (RT), 90 seconds, PBS
[2] = Aspergillus flavus, 3357, 0.025 h, 57.5° C. mild heat, 90 seconds, PBS
[3] = 57.5° C. mild heat, 90 seconds, PBS

| SMILES | MFC [1] [µM] | MFC [2] [µM] | further results |
| --- | --- | --- | --- |
| O=Cc1cccc(O)c1O [2,3-Dihydroxybenzaldehyde] | > 700 | > 700 |  |
| O=C(O)c1ccc(O)cc1O [2,4-Dihydroxybenzoic acid] | > 700 | > 700 |  |
| COc1ccc(C=O)c(O)c1 [2-Hydroxy-4-methoxybenzaldehyde] | > 700 | > 700 |  |
| Cc1ccc(C=O)c(O)c1 [2-Hydroxy-4-methylbenzaldehyde] | > 700 | > 700 |  |
| O=C(O)c1ccc(O)c(O)c1 [3,4-Dihydroxybenzoic acid] | > 700 |  | MFC [3]: >700 µM |
| O=Cc1ccccc1 [Benzaldehyde] | > 700 |  | MFC [3]: >700 µM |
| O=C(O)c1ccccc1 [Benzoic acid] | > 700 |  | MFC [3]: >700 µM |
| CCCCOC(=O)c1cc(O)c(O)c(O)c1 [Butyl gallate] | > 700 | > 700 |  |
| Cc1ccc(C(C)C)cc1O [Carvacrol] | > 700 |  | MFC [3]: >700 µM |
| CC[C@H](C)C[C@H](C)CCCCCCCCC(=O)N[C@H]1C[C@@H](O)[C@@H](NCCN)NC(=O)[C@@H]2[C@@H](O)CCN2C(=O)[C@H]([C@H](O)CCN)NC(=O)[C@H]([C@H](O)[C@@H](O)c2ccc(O)cc2)NC(=O)[C@@H]2C[C@@H](O)CN2C(=O)[C@H]([C@@H](C)O)NC1=O [Caspofungin] |  |  | minimum fungicidal concentration (MFC; >99.999% fungal death) (22.0° C. (RT), 90 seconds, PBS): >64 μg/mL; ppm; minimum fungicidal concentration (MFC; >99.999% fungal death) [3]: >64 μg/mL; ppm |
| O=CC=Cc1ccccc1 [Cinnamaldehyde] | > 700 |  | MFC [3]: >700 µM |
| O=C(O)C=Cc1ccccc1 [Cinnamic acid] | > 700 | > 700 |  |
| Cc1cc(C2CC2)nc(Nc2ccccc2)n1 [Cyprodinil] |  |  | minimum fungicidal concentration (MFC; >99.999% fungal death) (22.0° C. (RT), 90 seconds, PBS): >64 μg/mL; ppm; minimum fungicidal concentration (MFC; >99.999% fungal death) [3]: >64 μg/mL; ppm |
| CCCCCCCCCCOC(=O)c1cc(O)c(O)c(O)c1 [Decyl gallate] | > 700 | 200 | MFC (22.0° C. (RT), 90 seconds, PBS): >700 µM; minimum fungicidal concentration (MFC; >99.999% fungal death) [3]: 200* μM |
| CCOC(=O)c1cc(O)c(O)c(O)c1 [Ethyl gallate] | > 700 | > 700 |  |
| N#Cc1c[nH]cc1-c1cccc2c1OC(F)(F)O2 [Fludioxonil] |  |  | minimum fungicidal concentration (MFC; >99.999% fungal death) (22.0° C. (RT), 90 seconds, PBS): >64 μg/mL; ppm; minimum fungicidal concentration (MFC; >99.999% fungal death) [3]: >64 μg/mL; ppm |

| SMILES | MFC [1] [µM] | MFC [2] [µM] | further results |
| --- | --- | --- | --- |
| O=C(O)c1cc(O)c(O)c(O)c1 [Gallate] | > 700 | > 700 |  |
| COc1ccccc1O [Guaiacol] | > 700 | > 700 |  |
| OO [Hydrogen peroxide] | > 700 | > 700 |  |
| CCC(C)n1ncn(-c2ccc(N3CCN(c4ccc(OCC5COC(Cn6cncn6)(c6ccc(Cl)cc6Cl)O5)cc4)CC3)cc2)c1=O (stereo not shown) [Itraconazole] |  |  | minimum fungicidal concentration (MFC; >99.999% fungal death) (22.0° C. (RT), 90 seconds, PBS): 64 μg/mL; ppm; minimum fungicidal concentration (MFC; >99.999% fungal death) [3]: >64 μg/mL; ppm |
| COC(=O)c1cc(O)c(O)c(O)c1 [Methyl gallate] | > 700 | > 700 |  |
| CCCCCCCCCOC(=O)c1cc(O)c(O)c(O)c1 [Nonyl gallate] | > 700 | 400 | MFC (22.0° C. (RT), 90 seconds, PBS): >700 µM; minimum fungicidal concentration (MFC; >99.999% fungal death) [3]: 400* μM |
| CCCOC(=O)c1cc(O)c(O)c(O)c1 [Propyl gallate] | > 700 | > 700 |  |
| COC(=O)N(OC)c1ccccc1COc1ccn(-c2ccc(Cl)cc2)n1 [Pyraclostrobin] |  |  | minimum fungicidal concentration (MFC; >99.999% fungal death) (22.0° C. (RT), 90 seconds, PBS): >64 μg/mL; ppm; minimum fungicidal concentration (MFC; >99.999% fungal death) [3]: >64 μg/mL; ppm |
| Cc1cc(C)nc(Nc2ccccc2)n1 [Pyrimethanil] |  |  | minimum fungicidal concentration (MFC; >99.999% fungal death) (22.0° C. (RT), 90 seconds, PBS): >64 μg/mL; ppm; minimum fungicidal concentration (MFC; >99.999% fungal death) [3]: >64 μg/mL; ppm |
| O=Cc1ccccc1O [Salicylaldehyde] | > 700 |  | MFC [3]: >700 µM |
| O=C(O)c1ccccc1O [Salicyllic acid] |  |  | MFC (Aspergillus flavus, 3357, 0.025 h): > 700 µM |
| CCCCCCCCCCCCOS(=O)(=O)[O-].[Na+] [Sodium lauryl sulfate] | > 700 | > 700 |  |
| Cc1ccc(C(C)C)c(O)c1 [Thymol] | > 700 | > 700 |  |
| COc1cc(C(=O)O)ccc1O [Vanillic acid] | > 700 | > 700 |  |
| COc1cc(C=O)ccc1O [Vanillin] | > 700 | > 700 |  |
| COc1cc(CCC(C)=O)ccc1O [Vanillylacetone] | > 700 | > 700 |  |
